Assays:
Experiment in all cases: KINOMEscan binding
GRK4 = target: T1, GRK4 (Homo sapiens, UniProt P32298); details: read-out: Percent Control
T1 construct: purchased Eurofins DiscoverX KINOMEscan

FLT3(D835H) = target: T2, FLT3(D835H) (Homo sapiens, UniProt P36888, D835H); details: read-out: Percent Control
T2 construct: purchased Eurofins DiscoverX KINOMEscan

FLT3(ITD) = system: FLT3(ITD); design: species or system human; details: 10 μM
ROCK1 = target: T3, ROCK1 (Homo sapiens, UniProt Q13464)
T3 construct: purchased Eurofins DiscoverX KINOMEscan
T3 sequence (Q13464 whole entry): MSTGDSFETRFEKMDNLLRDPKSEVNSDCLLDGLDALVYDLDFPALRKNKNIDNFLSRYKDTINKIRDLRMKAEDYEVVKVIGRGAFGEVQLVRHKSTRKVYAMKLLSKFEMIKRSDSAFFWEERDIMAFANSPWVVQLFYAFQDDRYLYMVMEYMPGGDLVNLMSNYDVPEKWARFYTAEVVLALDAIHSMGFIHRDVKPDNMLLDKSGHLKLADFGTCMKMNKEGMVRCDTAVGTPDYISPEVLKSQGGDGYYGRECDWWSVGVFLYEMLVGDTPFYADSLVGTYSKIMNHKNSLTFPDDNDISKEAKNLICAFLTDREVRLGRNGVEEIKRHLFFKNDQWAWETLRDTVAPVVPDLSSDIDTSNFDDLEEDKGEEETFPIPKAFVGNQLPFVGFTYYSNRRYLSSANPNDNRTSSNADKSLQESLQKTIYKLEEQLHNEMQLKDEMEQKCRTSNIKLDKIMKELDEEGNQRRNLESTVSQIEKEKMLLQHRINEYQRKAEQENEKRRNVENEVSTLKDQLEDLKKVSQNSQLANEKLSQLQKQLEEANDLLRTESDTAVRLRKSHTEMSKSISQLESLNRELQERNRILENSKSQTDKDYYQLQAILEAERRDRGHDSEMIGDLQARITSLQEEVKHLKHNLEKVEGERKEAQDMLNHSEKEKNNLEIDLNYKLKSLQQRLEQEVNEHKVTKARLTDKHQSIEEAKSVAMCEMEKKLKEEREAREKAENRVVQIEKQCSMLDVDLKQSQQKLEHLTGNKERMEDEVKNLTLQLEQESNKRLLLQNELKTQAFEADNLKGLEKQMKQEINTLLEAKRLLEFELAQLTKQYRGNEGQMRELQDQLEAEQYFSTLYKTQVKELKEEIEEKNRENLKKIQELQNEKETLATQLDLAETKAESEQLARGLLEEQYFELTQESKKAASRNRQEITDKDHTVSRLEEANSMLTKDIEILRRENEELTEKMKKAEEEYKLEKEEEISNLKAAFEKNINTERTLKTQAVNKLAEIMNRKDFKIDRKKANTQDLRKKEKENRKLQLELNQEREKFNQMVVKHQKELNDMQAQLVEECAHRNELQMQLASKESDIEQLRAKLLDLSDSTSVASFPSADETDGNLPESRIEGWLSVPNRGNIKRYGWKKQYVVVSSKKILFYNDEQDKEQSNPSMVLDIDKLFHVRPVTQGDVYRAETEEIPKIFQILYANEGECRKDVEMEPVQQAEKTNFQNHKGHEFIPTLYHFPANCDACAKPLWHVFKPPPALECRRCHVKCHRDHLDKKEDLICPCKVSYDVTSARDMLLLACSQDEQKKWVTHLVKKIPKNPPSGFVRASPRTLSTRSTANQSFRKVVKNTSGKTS

LTK = target: T4, LTK (Homo sapiens, UniProt P29376); details: read-out: Percent Control
T4 construct: purchased Eurofins DiscoverX KINOMEscan

PIK3C2G = target: T5, PIK3C2G (Homo sapiens, UniProt O75747); details: read-out: Percent Control
T5 construct: purchased Eurofins DiscoverX KINOMEscan

PIM3 = target: T6, PIM3 (Homo sapiens, UniProt Q86V86); details: read-out: Percent Control
T6 construct: purchased Eurofins DiscoverX KINOMEscan

NEK3 = target: T7, NEK3 (Homo sapiens, UniProt P51956); details: read-out: Percent Control
T7 construct: purchased Eurofins DiscoverX KINOMEscan

PIK3C2B = target: T8, PIK3C2B (Homo sapiens, UniProt O00750); details: read-out: Percent Control
T8 construct: purchased Eurofins DiscoverX KINOMEscan

MEK1 = target: T9, MEK1 (Homo sapiens, UniProt Q02750); details: read-out: Percent Control
T9 construct: purchased Eurofins DiscoverX KINOMEscan

TESK1 = target: T10, TESK1 (Homo sapiens, UniProt Q15569); details: read-out: Percent Control
T10 construct: purchased Eurofins DiscoverX KINOMEscan

ABL1-nonphosphorylated = target: T11, ABL1-nonphosphorylated (Homo sapiens, UniProt P00519); details: read-out: Percent Control
T11 construct: purchased Eurofins DiscoverX KINOMEscan

DCAMKL1 = target: T12, DCAMKL1 (Homo sapiens, UniProt O15075); details: read-out: Percent Control
T12 construct: purchased Eurofins DiscoverX KINOMEscan
T12 sequence (O15075 whole entry): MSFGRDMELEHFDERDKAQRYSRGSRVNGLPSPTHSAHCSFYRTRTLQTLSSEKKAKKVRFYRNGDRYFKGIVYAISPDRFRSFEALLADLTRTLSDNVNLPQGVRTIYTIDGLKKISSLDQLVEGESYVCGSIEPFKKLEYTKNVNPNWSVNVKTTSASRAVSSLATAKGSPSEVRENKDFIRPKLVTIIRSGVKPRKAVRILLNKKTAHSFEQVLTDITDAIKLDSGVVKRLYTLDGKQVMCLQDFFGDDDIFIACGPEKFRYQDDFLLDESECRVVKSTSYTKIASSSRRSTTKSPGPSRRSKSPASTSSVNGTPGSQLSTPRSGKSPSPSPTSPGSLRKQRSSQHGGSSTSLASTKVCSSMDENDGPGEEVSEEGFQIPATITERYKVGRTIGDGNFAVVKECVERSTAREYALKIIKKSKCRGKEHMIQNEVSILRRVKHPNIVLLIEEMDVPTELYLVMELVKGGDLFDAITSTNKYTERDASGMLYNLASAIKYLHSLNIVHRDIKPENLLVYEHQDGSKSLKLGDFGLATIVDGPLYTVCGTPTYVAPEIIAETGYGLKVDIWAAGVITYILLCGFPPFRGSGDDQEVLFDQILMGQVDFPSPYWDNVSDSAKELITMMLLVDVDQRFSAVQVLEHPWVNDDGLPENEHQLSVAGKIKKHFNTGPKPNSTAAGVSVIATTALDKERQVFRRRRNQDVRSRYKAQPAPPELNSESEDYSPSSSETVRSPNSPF

NEK6 = target: T13, NEK6 (Homo sapiens, UniProt Q9HC98); details: read-out: Percent Control
T13 construct: purchased Eurofins DiscoverX KINOMEscan

YANK1 = target: T14, YANK1 (Homo sapiens, UniProt Q8WU08); details: read-out: Percent Control
T14 construct: purchased Eurofins DiscoverX KINOMEscan

INSRR = target: T15, INSRR (Homo sapiens, UniProt P14616); details: read-out: Percent Control
T15 construct: purchased Eurofins DiscoverX KINOMEscan

NEK5 = target: T16, NEK5 (Homo sapiens, UniProt Q6P3R8); details: read-out: Percent Control
T16 construct: purchased Eurofins DiscoverX KINOMEscan

DRAK2 = target: T17, DRAK2 (Homo sapiens, UniProt O94768); details: read-out: Percent Control
T17 construct: purchased Eurofins DiscoverX KINOMEscan

RIPK1 = target: T18, RIPK1 (Homo sapiens, UniProt Q13546); details: read-out: Percent Control
T18 construct: purchased Eurofins DiscoverX KINOMEscan

CAMK2A = target: T19, CAMK2A (Homo sapiens, UniProt Q9UQM7); details: read-out: Percent Control
T19 construct: purchased Eurofins DiscoverX KINOMEscan

CSK = target: T20, CSK (Homo sapiens, UniProt P41240); details: read-out: Percent Control
T20 construct: purchased Eurofins DiscoverX KINOMEscan

EPHA8 = target: T21, EPHA8 (Homo sapiens, UniProt P29322); details: read-out: Percent Control
T21 construct: purchased Eurofins DiscoverX KINOMEscan

PRKG2 = target: T22, PRKG2 (Homo sapiens, UniProt Q13237); details: read-out: Percent Control
T22 construct: purchased Eurofins DiscoverX KINOMEscan
T22 sequence (Q13237 whole entry): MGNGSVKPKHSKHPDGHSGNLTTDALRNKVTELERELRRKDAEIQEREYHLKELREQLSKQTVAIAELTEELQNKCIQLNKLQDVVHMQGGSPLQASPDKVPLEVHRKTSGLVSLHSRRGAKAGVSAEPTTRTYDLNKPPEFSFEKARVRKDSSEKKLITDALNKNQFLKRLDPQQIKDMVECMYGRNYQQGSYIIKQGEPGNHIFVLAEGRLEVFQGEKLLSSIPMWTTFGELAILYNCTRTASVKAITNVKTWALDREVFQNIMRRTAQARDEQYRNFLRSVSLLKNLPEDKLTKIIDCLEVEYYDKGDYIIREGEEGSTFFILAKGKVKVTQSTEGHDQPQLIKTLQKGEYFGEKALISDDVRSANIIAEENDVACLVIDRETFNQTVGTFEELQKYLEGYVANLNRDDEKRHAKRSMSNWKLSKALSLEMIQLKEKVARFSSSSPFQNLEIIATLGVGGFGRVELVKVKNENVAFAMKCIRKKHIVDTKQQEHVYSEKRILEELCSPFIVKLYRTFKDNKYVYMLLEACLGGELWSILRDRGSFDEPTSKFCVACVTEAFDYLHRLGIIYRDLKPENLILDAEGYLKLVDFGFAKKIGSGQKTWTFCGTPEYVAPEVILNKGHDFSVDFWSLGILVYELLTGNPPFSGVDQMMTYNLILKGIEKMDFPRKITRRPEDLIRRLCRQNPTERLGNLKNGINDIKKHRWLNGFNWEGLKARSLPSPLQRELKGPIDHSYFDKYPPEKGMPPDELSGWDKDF

WNK2 = target: T23, WNK2 (Homo sapiens, UniProt Q9Y3S1); details: read-out: Percent Control
T23 construct: purchased Eurofins DiscoverX KINOMEscan

CSNK1A1L = target: T24, CSNK1A1L (Homo sapiens, UniProt Q8N752); details: read-out: Percent Control
T24 construct: purchased Eurofins DiscoverX KINOMEscan
T24 sequence (Q8N752 whole entry): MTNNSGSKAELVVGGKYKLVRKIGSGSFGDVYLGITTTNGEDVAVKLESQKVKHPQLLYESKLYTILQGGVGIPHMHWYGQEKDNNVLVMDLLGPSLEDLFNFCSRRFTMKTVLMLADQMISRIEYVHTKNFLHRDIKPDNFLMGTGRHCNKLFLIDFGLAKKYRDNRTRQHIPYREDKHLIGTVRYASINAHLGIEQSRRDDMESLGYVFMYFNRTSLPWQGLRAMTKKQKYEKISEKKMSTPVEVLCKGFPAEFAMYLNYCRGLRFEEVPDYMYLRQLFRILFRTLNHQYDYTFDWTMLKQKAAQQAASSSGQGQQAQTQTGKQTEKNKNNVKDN

EPHA6 = target: T25, EPHA6 (Homo sapiens, UniProt Q9UF33); details: read-out: Percent Control
T25 construct: purchased Eurofins DiscoverX KINOMEscan

[1] = target: T26, RPS6KA4(Kin.Dom.2-C-terminal) (Homo sapiens, UniProt O75676); details: read-out: Percent Control
T26 construct: RPS6KA4(Kin.Dom.2-C-terminal); purchased Eurofins DiscoverX KINOMEscan

ERK8 = target: T27, ERK8 (Homo sapiens, UniProt Q8TD08); details: read-out: Percent Control
T27 construct: purchased Eurofins DiscoverX KINOMEscan
T27 sequence (Q8TD08 whole entry): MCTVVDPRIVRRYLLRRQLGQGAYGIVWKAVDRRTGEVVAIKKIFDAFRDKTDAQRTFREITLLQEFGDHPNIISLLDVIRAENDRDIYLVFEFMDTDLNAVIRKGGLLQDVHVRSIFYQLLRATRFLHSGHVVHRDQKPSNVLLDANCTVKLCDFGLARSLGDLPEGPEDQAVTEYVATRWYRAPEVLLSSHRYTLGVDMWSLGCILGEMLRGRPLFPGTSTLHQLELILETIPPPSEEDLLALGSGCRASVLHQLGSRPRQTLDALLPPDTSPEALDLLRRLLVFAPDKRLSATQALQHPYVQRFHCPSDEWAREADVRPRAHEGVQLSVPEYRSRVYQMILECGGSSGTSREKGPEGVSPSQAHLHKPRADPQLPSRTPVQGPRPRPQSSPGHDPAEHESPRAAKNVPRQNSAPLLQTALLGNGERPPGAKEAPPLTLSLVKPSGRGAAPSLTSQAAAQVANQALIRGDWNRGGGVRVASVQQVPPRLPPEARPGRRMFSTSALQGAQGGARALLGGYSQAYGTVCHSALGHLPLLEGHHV

FES = target: T28, FES (Homo sapiens, UniProt P07332); details: read-out: Percent Control
T28 construct: purchased Eurofins DiscoverX KINOMEscan

PLK2 = target: T29, PLK2 (Homo sapiens, UniProt Q9NYY3); details: read-out: Percent Control
T29 construct: purchased Eurofins DiscoverX KINOMEscan

[2] = target: T30, RPS6KA4(Kin.Dom.1-N-terminal) (Homo sapiens, UniProt O75676); details: read-out: Percent Control
T30 construct: RPS6KA4(Kin.Dom.1-N-terminal); purchased Eurofins DiscoverX KINOMEscan

[3] = target: T31, ABL1(F317L)-phosphorylated (Homo sapiens, UniProt P00519, F317L); details: read-out: Percent Control
T31 construct: purchased Eurofins DiscoverX KINOMEscan

KIT(V559D,T670I) = target: T32, KIT(V559D,T670I) (Homo sapiens, UniProt P10721, T670I/V559D); details: read-out: Percent Control
T32 construct: purchased Eurofins DiscoverX KINOMEscan

TRKB = target: T33, TRKB (Homo sapiens, UniProt Q16620); details: read-out: Percent Control
T33 construct: purchased Eurofins DiscoverX KINOMEscan
T33 sequence (Q16620 32-822): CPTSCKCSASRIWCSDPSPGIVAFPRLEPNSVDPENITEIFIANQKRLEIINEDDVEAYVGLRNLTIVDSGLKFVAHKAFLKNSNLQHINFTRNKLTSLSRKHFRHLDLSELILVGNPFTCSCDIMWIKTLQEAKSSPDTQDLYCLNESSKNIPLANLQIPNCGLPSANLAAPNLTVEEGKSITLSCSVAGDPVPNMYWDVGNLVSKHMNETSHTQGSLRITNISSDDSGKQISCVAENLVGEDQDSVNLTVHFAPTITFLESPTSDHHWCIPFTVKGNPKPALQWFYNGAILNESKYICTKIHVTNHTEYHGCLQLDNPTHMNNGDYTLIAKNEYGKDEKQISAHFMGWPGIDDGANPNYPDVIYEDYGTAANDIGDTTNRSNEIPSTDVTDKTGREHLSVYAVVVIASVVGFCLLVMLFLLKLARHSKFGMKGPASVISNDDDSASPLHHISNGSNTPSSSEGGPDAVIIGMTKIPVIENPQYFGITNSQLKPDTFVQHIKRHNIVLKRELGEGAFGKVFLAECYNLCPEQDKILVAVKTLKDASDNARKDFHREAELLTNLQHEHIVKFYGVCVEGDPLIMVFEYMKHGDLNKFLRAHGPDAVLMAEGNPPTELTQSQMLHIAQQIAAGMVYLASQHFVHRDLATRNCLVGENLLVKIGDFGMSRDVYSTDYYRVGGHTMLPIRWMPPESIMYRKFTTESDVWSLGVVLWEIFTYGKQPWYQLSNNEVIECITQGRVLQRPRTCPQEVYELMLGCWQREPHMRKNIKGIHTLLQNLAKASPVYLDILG

CDK4 = target: T34, CDK4 (Homo sapiens, UniProt P11802); details: read-out: Percent Control
T34 construct: purchased Eurofins DiscoverX KINOMEscan

DAPK2 = target: T35, DAPK2 (Homo sapiens, UniProt Q9UIK4); details: read-out: Percent Control
T35 construct: purchased Eurofins DiscoverX KINOMEscan
T35 sequence (Q9UIK4 whole entry): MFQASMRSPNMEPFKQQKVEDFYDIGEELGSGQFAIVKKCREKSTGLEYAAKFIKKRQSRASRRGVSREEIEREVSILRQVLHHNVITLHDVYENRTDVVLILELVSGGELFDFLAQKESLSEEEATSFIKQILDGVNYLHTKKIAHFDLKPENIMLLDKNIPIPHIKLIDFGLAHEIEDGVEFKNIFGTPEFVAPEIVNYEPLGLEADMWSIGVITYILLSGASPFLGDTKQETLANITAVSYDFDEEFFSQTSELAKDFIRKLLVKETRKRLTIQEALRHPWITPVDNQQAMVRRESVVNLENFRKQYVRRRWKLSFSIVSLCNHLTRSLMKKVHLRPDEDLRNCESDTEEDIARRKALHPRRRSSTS

EPHA7 = target: T36, EPHA7 (Homo sapiens, UniProt Q15375); details: read-out: Percent Control
T36 construct: purchased Eurofins DiscoverX KINOMEscan

GSK3B = target: T37, GSK3B (Homo sapiens, UniProt P49841); details: read-out: Percent Control
T37 construct: purchased Eurofins DiscoverX KINOMEscan

IRAK1 = target: T38, IRAK1 (Homo sapiens, UniProt P51617); details: read-out: Percent Control
T38 construct: purchased Eurofins DiscoverX KINOMEscan

MAST1 = target: T39, MAST1 (Homo sapiens, UniProt Q9Y2H9); details: read-out: Percent Control
T39 construct: purchased Eurofins DiscoverX KINOMEscan

p38-alpha = target: T40, p38-alpha (Homo sapiens, UniProt Q16539); details: read-out: Percent Control
T40 construct: purchased Eurofins DiscoverX KINOMEscan

PKAC-alpha = target: T41, PKAC-alpha (Homo sapiens, UniProt P17612); details: read-out: Percent Control
T41 construct: purchased Eurofins DiscoverX KINOMEscan

ULK1 = target: T42, ULK1 (Homo sapiens, UniProt O75385); details: read-out: Percent Control
T42 construct: purchased Eurofins DiscoverX KINOMEscan

`CC(C)NC(=O)COc1cccc(-c2nc(Nc3ccc4[nH]ncc4c3)c3ccccc3n2)c1` [KD025, 2-(3-(4-((1H-indazol-5-yl)amino)quinazolin-2-yl)phenoxy)-N-isopropylacetamide] was tested, and the remaining binding at 10 µM (GRK4) was 16%, the remaining binding at 10 µM (FLT3(D835H)) was 22% and the “Percent Control” value (FLT3(ITD)) was 31%. The “ROCK1 vs. ROCK2 in POC” value (ROCK1; 10 μM) was 900 fold, the remaining binding at 10 µM (ROCK1; ROCK1, read-out: Percent Control) was 45% and the remaining binding at 10 µM (LTK) was 49%. It also gave a remaining binding at 10 µM (PIK3C2G) of 58%, a remaining binding at 10 µM (PIM3) of 63% and a remaining binding at 10 µM (NEK3) of 64%. The remaining binding at 10 µM (PIK3C2B) was 67%, the remaining binding at 10 µM (MEK1) was 72% and the remaining binding at 10 µM (TESK1) was 73%. It also gave a remaining binding at 10 µM (ABL1-nonphosphorylated) of 78%, a remaining binding at 10 µM (DCAMKL1) of 79% and a remaining binding at 10 µM (NEK6) of 80%. It also gave a remaining binding at 10 µM (YANK1) of 80%, a remaining binding at 10 µM (INSRR) of 83% and a remaining binding at 10 µM (NEK5) of 83%. It also gave a remaining binding at 10 µM (DRAK2) of 85%, a remaining binding at 10 µM (RIPK1) of 86% and a remaining binding at 10 µM (CAMK2A) of 87%. For the same molecule, the remaining binding at 10 µM (CSK) was 88%, the remaining binding at 10 µM (EPHA8) was 88% and the remaining binding at 10 µM (PRKG2) was 88%. For the same molecule, the remaining binding at 10 µM (WNK2) was 88%, the remaining binding at 10 µM (CSNK1A1L) was 89% and the remaining binding at 10 µM (EPHA6) was 90%. The remaining binding at 10 µM [1] was 91%, the remaining binding at 10 µM (ERK8) was 93% and the remaining binding at 10 µM (FES) was 94%. For the same molecule, the remaining binding at 10 µM (PLK2) was 94%, the remaining binding at 10 µM [2] was 94% and the remaining binding at 10 µM [3] was 98%. The remaining binding at 10 µM (KIT(V559D,T670I)) was 98%, the remaining binding at 10 µM (TRKB) was 98% and the remaining binding at 10 µM (CDK4) was 100%. It also gave a remaining binding at 10 µM (DAPK2) of 100%, a remaining binding at 10 µM (EPHA7) of 100% and a remaining binding at 10 µM (GSK3B) of 100%. For the same molecule, the remaining binding at 10 µM (IRAK1) was 100%, the remaining binding at 10 µM (MAST1) was 100% and the remaining binding at 10 µM (p38-alpha) was 100%. For the same molecule, the remaining binding at 10 µM (PKAC-alpha) was 100% and the remaining binding at 10 µM (ULK1) was 100%.

From paper PMC8401933 (Molecules, 2021)
